Results: patent US9670208B2, “Serine/threonine kinase inhibitors” (Array BioPharma Inc., priority 2013, dated 2017)

Assays:
[1] = target: human ERK-2 (Mitogen Activated Kinase 1) (Homo sapiens (Human), UniProt P28482); assay: ERK-2 Enzymatic Assay; type: biochemical; conditions: ERK-2 enzyme, 25 μM ATP; single assay or mean of multiple assays; read-out: Biological Example 1 IC50
[2] = tested on: PMA-stimulated P90RSK(Ser380) phosphorylation in HepG2 cells; assay: Cellular P90RSK(Ser380) Phosphorylation Assay; type: cell-based; conditions: Homo sapiens, 1.5 hours compound incubation, PMA 100 ng/mL, normalized to GAPDH, single assay or mean of multiple assays, read-out: Biological Example 2 IC50
Protocol: Inhibition of PMA-stimulated P90RSK(Ser380) phosphorylation was determined by the following in vitro cellular mechanistic assay, which comprises incubating cells with a compound for 1.5 hours and quantifying fluorescent pP90RSK(Ser380) signal on fixed cells and normalizing to GAPDH signal.
HepG2 cells were obtained from ATCC (Manassas, Va.) and grown in DMEM supplemented with 10% fetal bovine serum. Cells were plated in 96-well plates at 35,000 cells/well and allowed to attach overnight at 37° C./5% CO2. Diluted compounds were then added at a final concentration of 0.5% DMSO. After 1.5 hours compound incubation, cells were stimulated with the addition of phorbol 12-myristate 13-acetate (“PMA”) at a final concentration of 100 ng/mL; the PMA stimulation was a 30-minute incubation at 37° C./5% CO2. After the 30-minute PMA stimulation, cells were washed with phosphate buffered saline (“PBS”) and fixed in 3.7% formaldehyde in PBS at room temperature for 15-20 minutes. This was followed by another wash in PBS and then permeabilization in 100% MeOH at room temperature for 10-15 minutes. Following the permeabilization incubation, cells were washed in PBS/0.05% Tween-20, followed by a block in Odyssey blocking buffer (LI-COR Biosciences) for at least 1 hour. Antibodies to phosphorylated P90RSK(Ser380) (Cell Signaling #9335, rabbit monoclonal) and GAPDH (Fitzgerald 10R-G109a, mouse monoclonal) were added to the cells and incubated overnight at 4° C. pP90RSK(Ser380) antibody was used at a 1:250 dilution; GAPDH was used at a 1:10,000 dilution. After washing with PBS/0.05% Tween-20, the cells were incubated with fluorescently-labeled secondary antibodies (Anti-rabbit-Alexa Flour680, Invitrogen Cat#A21109; Anti-mouse-IRDye800CW, Rockland Inc. Cat#610-131-121) for 1 hour. Both secondary antibodies were used at a 1:1000 dilution. Cells were then washed and analyzed for fluorescence at both wavelengths using the Odyssey Infrared Imaging System (LI-COR Biosciences). Phosphorylated P90RSK(Ser380) signal was normalized to GAPDH signal.

Chain of human ERK-2 (Mitogen Activated Kinase 1) (P28482 8-360): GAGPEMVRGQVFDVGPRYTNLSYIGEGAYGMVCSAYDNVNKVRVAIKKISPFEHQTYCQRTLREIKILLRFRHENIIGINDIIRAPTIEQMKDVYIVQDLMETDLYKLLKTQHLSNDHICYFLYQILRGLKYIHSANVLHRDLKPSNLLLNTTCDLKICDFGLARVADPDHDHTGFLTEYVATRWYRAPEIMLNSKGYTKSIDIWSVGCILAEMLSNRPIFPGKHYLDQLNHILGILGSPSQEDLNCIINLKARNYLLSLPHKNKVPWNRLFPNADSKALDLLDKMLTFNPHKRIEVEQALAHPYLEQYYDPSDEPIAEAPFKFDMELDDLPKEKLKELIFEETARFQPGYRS

SMILES | IC50 [1] | IC50 [2]
Cn1nccc1Nc1nccc(-c2ccn3c([C@H](O)c4cccc(Cl)c4)nnc3c2)n1 [Example 116, (R)-(3-chlorophenyl)(7-(2-((1-methyl-1H-pyrazol-5-yl)amino)pyrimidin-4-yl)-[1,2,4]triazolo[4,3-a]pyridin-3-yl)methanol] | 3.3 nM | 19.3 nM
COC(Cc1nnc2cc(-c3ccnc(Nc4ccnn4C)n3)ccn12)C(F)(F)F (stereo not drawn) [Example 108, N-(1-methyl-1H-pyrazol-5-yl)-4-(3-(3,3,3-trifluoro-2-methoxypropyl)-[1,2,4]triazolo[4,3-a]pyridin-7-yl)pyrimidin-2-amine] | 3.4 nM | 38.2 nM
O=C(c1c(F)cccc1F)N1CCOC(c2nnc3cc(-c4ccnc(NC5CCOCC5)n4)ccn23)C1 (stereo not drawn) [Example 140, (2,6-difluorophenyl)(2-(7-(2-((tetrahydro-2H-pyran-4-yl)amino)pyrimidin-4-yl)-[1,2,4]triazolo[4,3-a]pyridin-3-yl)morpholino)methanone] | 7.5 nM | 486 nM
Cn1nccc1Nc1nccc(-c2ccn3c(CC(C)(O)C4CC4)nnc3c2)n1 (stereo not drawn) [Example 563, 2-cyclopropyl-1-(7-(2-((1-methyl-1H-pyrazol-5-yl)amino)pyrimidin-4-yl)-[1,2,4]triazolo[4,3-a]pyridin-3-yl)propan-2-ol] | 661 nM | > 5000 nM
Cn1nccc1Nc1cc(-c2ccn3c(Cc4ccc(F)cc4F)nnc3c2)ccn1 [Example 84, 4-(3-(2,4-difluorobenzyl)-[1,2,4]triazolo[4,3-a]pyridin-7-yl)-N-(1-methyl-1H-pyrazol-5-yl)pyridin-2-amine] | 3.2 nM | 15.7 nM
CC(=O)NC(Cc1nnc2cc(-c3ccnc(Nc4ccnn4C)n3)ccn12)c1ccc(F)c(Cl)c1 (stereo not drawn) [Example 467, N-(1-(3-chloro-4-fluorophenyl)-2-(7-(2-((1-methyl-1H-pyrazol-5-yl)amino)pyrimidin-4-yl)-[1,2,4]triazolo[4,3-a]pyridin-3-yl)ethyl)acetamide] | 1.8 nM | 3350 nM
Cn1nccc1Nc1nccc(-c2ccn3c(CS(=O)(=O)c4ccccc4)nnc3c2)n1 [Example 306, N-(1-methyl-1H-pyrazol-5-yl)-4-(3-((phenylsulfonyl)methyl)-[1,2,4]triazolo[4,3-a]pyridin-7-yl)pyrimidin-2-amine] | 1.8 nM | 63.7 nM
Cc1cc(-c2nnc3cc(-c4ccnc(Nc5cnn(C)c5)n4)ccn23)nn1-c1ccc(F)cc1 [Example 419, 4-(3-(1-(4-fluorophenyl)-5-methyl-1H-pyrazol-3-yl)-[1,2,4]triazolo[4,3-a]pyridin-7-yl)-N-(1-methyl-1H-pyrazol-4-yl)pyrimidin-2-amine] | 135 nM | 

The next lines start with results.

IC50 [1] | SMILES | IC50 [2]
0.9 nM | COc1ccc(Cc2nnc3cc(-c4ccnc(NC5CCOCC5)n4)ccn23)cn1 [Example 272, 4-(3-((6-methoxypyridin-3-yl)methyl)-[1,2,4]triazolo[4,3-a]pyridin-7-yl)-N-(tetrahydro-2H-pyran-4-yl)pyrimidin-2-amine] | 95.4 nM
0.9 nM | COc1ccc(Cc2nnc3cc(-c4ccnc(NC5CCOCC5)n4)ccn23)cc1F [Example 403, 4-(3-(3-fluoro-4-methoxybenzyl)-[1,2,4]triazolo[4,3-a]pyridin-7-yl)-N-(tetrahydro-2H-pyran-4-yl)pyrimidin-2-amine] | 18.6 nM
117 nM | c1cc(-c2ccn3c(C4CNCCO4)nnc3c2)nc(NC2CCOCC2)n1 (stereo not drawn) [Example 387, 4-(3-(morpholin-2-yl)-[1,2,4]triazolo[4,3-a]pyridin-7-yl)-N-(tetrahydro-2H-pyran-4-yl)pyrimidin-2-amine] | 
171 nM | CN1C(=O)CC(c2ccccc2)C1c1nnc2cc(-c3ccnc(NC4CCOCC4)n3)ccn12 (stereo not drawn) [Example 136, 1-methyl-4-phenyl-5-(7-(2-((tetrahydro-2H-pyran-4-yl)amino)pyrimidin-4-yl)-[1,2,4]triazolo[4,3-a]pyridin-3-yl)pyrrolidin-2-one] | 
